Data taken from patent EP4737445A1, “NOVEL SATURATED HETEROCYCLE-SUBSTITUTED HETEROARYL-CARBONOHYDRAZONOYL DICYANIDE COMPOUND AND USE THEREOF” (Korea Institute of Science and Technology, priority 2023, dated 2025).
Read-outs that look alike come from different tables or passages of the source.

What was measured:
CYP1A2 = molecular target: T1, CYP1A2 (Homo sapiens, UniProt P05177); assay: CYP isoenzyme activity inhibition in human liver microsomes, CYP1A2; assay type: in vitro ADME; settings: 10 µM compound; human liver microsomes 0.25 mg/mL; relative to control without compound
T1 construct: human liver microsomes (0.25 mg/mL); from tissue; host or cells: human liver microsomes
T1 sequence (P05177 1-516): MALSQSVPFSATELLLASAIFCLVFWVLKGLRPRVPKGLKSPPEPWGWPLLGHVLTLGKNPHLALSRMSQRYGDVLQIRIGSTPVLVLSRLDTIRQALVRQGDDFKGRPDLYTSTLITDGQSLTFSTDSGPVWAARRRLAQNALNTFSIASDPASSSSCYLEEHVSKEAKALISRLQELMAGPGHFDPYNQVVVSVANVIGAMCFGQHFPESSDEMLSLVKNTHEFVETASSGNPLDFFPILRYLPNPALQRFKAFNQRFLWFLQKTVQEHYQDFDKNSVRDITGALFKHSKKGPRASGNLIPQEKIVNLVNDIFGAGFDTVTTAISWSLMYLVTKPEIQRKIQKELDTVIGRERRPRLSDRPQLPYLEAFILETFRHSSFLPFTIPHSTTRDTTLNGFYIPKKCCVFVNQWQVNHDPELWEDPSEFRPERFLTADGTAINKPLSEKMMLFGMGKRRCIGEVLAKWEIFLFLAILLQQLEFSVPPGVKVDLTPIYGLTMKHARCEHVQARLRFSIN
Experimental: The CYP isoenzyme activity inhibitory effect by the compounds prepared according to Examples 1 to 46 was confirmed. Specifically, human liver microsomes (0.25 mg/mL), 0.1 M phosphate buffer solution (pH 7.4), a substrate drug cocktail of five drug metabolizing enzymes (Phenacetin 50 µM, Diclofenac 10 µM, S-mephenytoin 100 µM, Dextromethorphan 5 µM, and Midazolam 2.5 µM), and the compounds were added at concentrations of 0 or 10 µM, respectively, and pre-incubated at 37°C for 5 minutes, and then NADPH generation system solution was added and incubated at 37°C for an additional 15 minutes. Thereafter, an acetonitrile solution containing an internal standard (Terfenadine) was added to terminate the reaction, and after centrifugation for 5 minutes (14,000 rpm, 4°C), the supernatant was injected into an LC-MS/MS system to simultaneously analyze the metabolites of the substrate drugs, thereby evaluating the drug metabolizing enzyme inhibitory activity.
The metabolites of each CYP isoenzyme marker drug generated through the reaction were analyzed using a Shimadzu Nexera XR system and TSQ vantage (Thermo). A Kinetex C18 (2.1 × 100 mm, 2.6 µm, particle size; Phenomenex, USA) was used as the HPLC column, and (A) distilled water containing 0.1% formic acid and (B) acetonitrile containing 0.1% formic acid were used as mobile phases, and a gradient program as shown in Table 6 below was applied.
The generated metabolites were quantified using MRM (Multiple Reaction Monitoring) quantitative mode, and Xcalibur (version 1.6.1) was used for data analysis. To show the CYP isoenzyme activity inhibitory effect of the novel compounds prepared according to the Examples of the disclosure, the % activity of CYP isoenzymes relative to the control group without compound addition is shown in Table 6 below. Additionally, to confirm the difference in effect according to substituents, Comparative Compounds 1 and 5, which are two compounds that share a similar parent nucleus structure with Compounds 1 to 46 of the disclosure while Cy is substituted with aromatic heteroaryl instead of saturated heterocyclyl, were selected as comparative compounds and their activities are shown together.

[1] = Liver microsomal stability, human; assay type: in vitro ADME; settings: 1 µM compound; 0.5 mg/mL microsomes; NADPH; 30 minutes at 37°C
Experimental: Liver microsomal stability by the compounds prepared according to Examples 1 to 46 was confirmed. Specifically, four types of liver microsomes (human, dog, rat, and mouse each at 0.5 mg/mL), 0.1 M phosphate buffer solution (pH 7.4), and the compounds at 1 µM concentration were added and pre-incubated at 37°C for 5 minutes, and then NADPH generation system solution was added and incubated at 37°C for an additional 30 minutes. Thereafter, an acetonitrile solution containing an internal standard (chloropropamide) was added to terminate the reaction, and after centrifugation for 5 minutes (14,000 rpm, 4°C), the supernatant was injected into an LC-MS/MS system to analyze the substrate drug, thereby evaluating the metabolic stability of 8 compounds.
The amount of remaining substrate through the reaction was analyzed using a Shimadzu Nexera XR system and TSQ vantage (Thermo). A Kinetex XB-C18 (2.1 × 100 mm, 2.6 µm, particle size; Phenomenex, USA) was used as the HPLC column, and (A) distilled water containing 0.1% formic acid and (B) acetonitrile containing 0.1% formic acid were used as mobile phases. Analyst software (version 1.6.3) and Xcalibur (version 1.6.1) were used for data analysis. The calculated results are shown in Table 5 below: Liver microsomal stability data of novel compounds from […] (human, rat, and mouse).

Tau = molecular target: T2, Tau (Homo sapiens, UniProt P10636); assay: Tau aggregation inhibition in Tau-BiFC cell model (Forskolin-induced); assay type: cell-based
T2 construct: BiFC fluorescent-protein fragments (two complementary halves on two tau copies); expressed in transfected cells
T2 sequence (P10636 1-441 isoform P10636-8): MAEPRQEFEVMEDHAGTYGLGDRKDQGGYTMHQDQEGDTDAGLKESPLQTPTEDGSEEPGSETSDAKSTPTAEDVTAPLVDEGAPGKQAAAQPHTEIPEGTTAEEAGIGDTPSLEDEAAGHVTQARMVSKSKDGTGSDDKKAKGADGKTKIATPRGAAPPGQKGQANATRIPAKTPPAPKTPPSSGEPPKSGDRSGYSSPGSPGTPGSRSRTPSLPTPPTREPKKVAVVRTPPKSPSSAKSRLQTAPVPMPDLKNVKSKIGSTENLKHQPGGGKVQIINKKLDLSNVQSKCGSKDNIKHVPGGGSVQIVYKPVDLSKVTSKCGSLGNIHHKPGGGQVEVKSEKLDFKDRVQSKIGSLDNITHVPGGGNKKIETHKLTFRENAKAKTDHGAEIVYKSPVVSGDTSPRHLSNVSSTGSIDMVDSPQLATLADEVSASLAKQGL
Experimental: (§1) To screen for new tau aggregation inhibitors, a Tau-BiFC cell model that facilitates observation of tau oligomer formation in living cells was used. Tau-BiFC cells were dispensed into a 384-well plate, and the next day, the compounds prepared according to Examples 1 to 46 were treated at concentrations of 1, 3, and 10 µM, respectively, together with Forskolin (treatment concentration 30 µM), which is a compound that induces tau aggregation by activating the tau phosphorylation enzyme PKA. After 48 hours, nuclei within cells were stained using Hoechst (treatment concentration 2 µg/mL), and BiFC fluorescence intensity was automatically quantified using Operetta (Perkin Elmer) to count the stained nuclei in each well from the entire plate. The group treated only with Forskolin, which induces tau aggregation, was set as the reference point with 100% tau aggregation state, and the effect was confirmed by the formula "BiFC fluorescence intensity by the compounds synthesized according to the Examples of the disclosure/(fluorescence intensity of the control group treated only with Forskolin that induces tau aggregation - fluorescence intensity of the untreated control group) × 100". In addition, the degree of cytotoxicity induced by the newly synthesized compounds was also calculated using the formula "(number of stained nuclei in the compound-treated group/number of stained nuclei in the Forskolin-treated group) × 100", with the group treated only with Forskolin as the reference point at 100% viability. From the treatment results, substances that inhibit intracellular tau aggregation were identified through screening from a series of candidates based on the criteria of 70% or more tau aggregation inhibition and 100% cell viability at a compound treatment concentration of 10 µM.
(§2) To confirm the tau aggregation inhibitory effect according to the concentration of the compounds screened in Experimental Example 1, the screened compounds were treated to Tau-BiFC cells at concentrations of 0.03, 0.1, 0.3, 1, 3, 10, and 30 µM, respectively, together with Forskolin (treatment concentration 30 µM), which is a tau aggregation-inducing substance. After 48 hours, cell images were examined to analyze the tau aggregation reaction and degree of cytotoxicity. The IC50 and toxicity of the compounds were analyzed by nonlinear regression analysis using Prism software (GraphPad). The calculated results for representative compounds are shown in Table 3 below: Tau aggregation inhibitory effect and cell viability of novel compounds.

Tau-BiFC cells = assay: Cell viability (stained nuclei count) in Tau-BiFC cells; assay type: cell-based; settings: @10 µM; Tau-BiFC cell line; Forskolin-only group = 100%
Experimental: as §1, §2

SMILES	CYP1A2 (% activity) (CYP1A2)	Human microsomes (% remaining) [1] [% remaining]	IC50 (Tau) [nM]	Cell viability (% @10µM) (Tau-BiFC cells) [%]	IC50 (Tau; read-out: Tau aggregation inhibitory effect IC50, Tau-BiFC cell line, Forskolin 30 µM, 48 hours, 0.03-30 µM) [nM]
N#CC(C#N)=NNc1ccc2nc(N3CCOCC3)oc2c1 [Compound 4, (2-morpholinobenzo[d]oxazol-6-yl)carbonohydrazonoyl dicyanide]	86.8	93.5	56	100	–
N#CC(C#N)=NNc1ccc2nc(N3CC4CCC(C3)O4)oc2c1 [Compound 26, (2-(8-oxa-3-azabicyclo[3.2.1]octan-3-yl)benzo[d]oxazol-6-yl)carbonohydrazonoyl dicyanide]	79.1	96.3	10	99	–
Cn1c(N2C3CCC2COC3)nc2ccc(NN=C(C#N)C#N)cc21 [Compound 34, (2-(3-oxa-8-azabicyclo[3.2.1]octan-8-yl)-1-methyl-1H-benzo[d]imidazol-6-yl)carbonohydrazonoyl dicyanide]	85.8	88.9	12	100	–
CC(=O)N1CCN(c2nc3ccc(NN=C(C#N)C#N)cc3s2)CC1 [Compound 30, (2-(4-acetylpiperazin-1-yl)benzo[d]thiazol-6-yl)carbonohydrazonoyl dicyanide]	88.9	> 100	60	99	–
CCn1c(N2CCOCC2)nc2cc(NN=C(C#N)C#N)ccc21 [Compound 33, (1-ethyl-2-morpholino-1H-benzo[d]imidazol-5-yl)carbonohydrazonoyl dicyanide]	75.5	94.9	4	97	–
Cn1c(N2CCOCC2)nc2ccc(NN=C(C#N)C#N)cc21 [Compound 5, (1-methyl-2-morpholino-1H-benzo[d]imidazol-6-yl)carbonohydrazonoyl dicyanide]	84.3	77.8	32	100	–
CC1COCCN1c1nc2ccc(NN=C(C#N)C#N)cc2o1 (stereo not drawn) [Compound 16, (2-(3-methylmorpholino)benzo[d]oxazol-6-yl)carbonohydrazonoyl dicyanide]	99.9	79.8	49	100	–
N#CC(C#N)=NNc1ccc2nc(N3CCNCC3)oc2c1 [Compound 25, (2-(piperazin-1-yl)benzo[d]oxazol-6-yl)carbonohydrazonoyl dicyanide]	87	–	36	94	–
CN1CCN(c2nc3ccc(NN=C(C#N)C#N)cc3o2)CC1 [Compound 14, (2-(4-methylpiperazin-1-yl)benzo[d]oxazol-6-yl)carbonohydrazonoyl dicyanide]	89.7	–	48	100	–
N#CC(C#N)=NNc1ccc2nc(N3C4CCC3COC4)oc2c1 [Compound 20, (2-(3-oxa-8-azabicyclo[3.2.1]octan-8-yl)benzo[d]oxazol-6-yl)carbonohydrazonoyl dicyanide]	55.6	> 100	11	96	–
N#CC(C#N)=NNc1ccc2nc(NC(=O)N3CCOCC3)sc2c1 [Compound 38, (2-(morpholine-4-carboxamido)benzo[d]thiazol-6-yl)carbonohydrazonoyl dicyanide]	83.9	87.6	–	97	68
N#CC(C#N)=NNc1ccc2oc(N3CCOCC3)nc2c1 [Compound 3, (2-morpholinobenzo[d]oxazol-5-yl)carbonohydrazonoyl dicyanide]	99.9	99.4	20	100	–
CCn1c(N2CCOCC2)nc2ccc(NN=C(C#N)C#N)cc21 [Compound 32, (1-ethyl-2-morpholino-1H-benzo[d]imidazol-6-yl)carbonohydrazonoyl dicyanide]	78.9	95.5	12	98	–
N#CC(C#N)=NNc1ccc2nc(N3CCOCC3)sc2c1 [Compound 2, (2-morpholinobenzo[d]thiazol-6-yl)carbonohydrazonoyl dicyanide]	81.7	74.3	4	100	–
N#CC(C#N)=NNc1ccc2nc(N3CCNCC3)sc2c1 [Compound 24, (2-(piperazin-1-yl)benzo[d]thiazol-6-yl)carbonohydrazonoyl dicyanide]	65.1	–	168	95	–
CC(C)N1CCN(c2nc3ccc(NN=C(C#N)C#N)cc3s2)CC1 [Compound 27, (2-(4-isopropylpiperazin-1-yl)benzo[d]thiazol-6-yl)carbonohydrazonoyl dicyanide]	95.1	–	44	99	–
